Like-named read-outs stand apart in the source and are kept apart here.
Experiments:
[1] = system: MRC-5 fibroblasts; assay: MTT cytotoxicity assay on non-cancerous MRC-5 fibroblasts; format: cell-based; conditions: for primary growth inhibitory screen, cell viability, MRC-5 / effect on non-cancerous fibroblasts: 2.5 µM; for primary growth inhibitory screen, cell viability, MRC-5 / IC50: MTT; for primary growth inhibitory screen, cell viability, MRC-5: mean±SD, untreated control about 100; for IC50: mean ± SD; for effect on non-cancerous fibroblasts: based on the heat map
Method: (§1) Cytotoxicity screens were performed to assess the in vitro anticancer activity of the synthesized A-ring-linked 2-pyrazoles of estradiol, the pyrazolocoumarin-estradiol hybrids, and their structurally simplified non-steroidal analogs on various cancerous cell lines such as MCF-7, PC-3, DU145, and HeLa and on non-cancerous MRC-5 fibroblasts. The 2-acetyl-phenol starting materials (4, 5, and 15) were also included for comparison. All compounds were applied in 2.5 µM concentration for 72 h. The obtained cell viability data were used to construct a heat map (Figure 2) in order to select compounds that exert cancer cell line-specific cytotoxicity. […] Furthermore, some compounds discriminated only DU145 cells and could eliminate these type of prostate cancer cells.
(§2) To understand structure-function relationships, we also included the structural analogs of the selected compounds, namely 7a (C-17 acetate of 8a), 8c (C-17 OH counterpart of 7c), and 9a (steroidal pair of 19a) into subsequent analyses. […] For this, compounds were applied on MCF-7, PC-3, DU145, and HeLa and on non-cancerous MRC-5 fibroblasts in various concentrations for 72 h or were treated with cisplatin at different concentrations. On the viability data, dose–response curves were fitted (Figure S1) and IC50 values were calculated accordingly (Table 3). In agreement with the primary cytotoxicity screen (Table S1), the obtained IC50 concentrations clearly indicated which compound was selectively effective on one or more cancer cell lines. […] Typically, acetylated steroidal pyrazoles were less favorable than deacetylated counterparts due to reduced cancer cell selectivity (7c, 10a).
(§3) To evaluate the in vitro pharmacological effects of the synthesized molecules, each compound was first dissolved in cell culture grade DMSO (Sigma) to a final concentration of 10 mM. Using MTT colorimetric assay, the cytotoxicity of these compounds was evaluated on cancerous (MCF-7, HeLa, DU145, PC-3) and non-cancerous (MRC-5) cell lines. Briefly, 5000 cells/well of each cell line were seeded in 96-well plates and were left to grow overnight in a 5% CO2 atmosphere at 37 °C. On the next day, cells were treated with each derivative separately, in case of the primary screen, or only with the selected compounds upon IC50 determination. Cells were incubated with the test compounds for 72 h in a 5% CO2 atmosphere at 37 °C. End point was measured by incubating cells for 1 h with 0.5 mg/mL of MTT reagent (Serva) dissolved in serum free culture medium. The formazan crystals formed by metabolically active cells were later dissolved in DMSO. Optical density of the obtained solutions was measured at 570 nm using a Synergy HTX plate reader. […] The analysis and conclusions were made based on three independent experiments. Normalized data were analyzed and the heat map was constructed using GraphPad Prism 7 software.

[2] = system: PC-3 cells; assay: MTT cytotoxicity assay on PC-3 prostate cancer cells; format: cell-based; conditions: for primary growth inhibitory screen, cell viability, PC-3: 2.5 µM, 72 h, mean±SD, untreated control about 100; for IC50: mean ± SD
Method: as §1, §2, §3

[3] = system: DU145 cells; assay: MTT cytotoxicity assay on DU145 prostate cancer cells; format: cell-based; conditions: for primary growth inhibitory screen, cell viability, DU145: 2.5 µM, 72 h, mean±SD, untreated control about 100; for IC50: mean ± SD
Method: as §1, §2, §3

[4] = system: MCF-7 cells; assay: MTT cytotoxicity assay on MCF-7 cells; format: cell-based; conditions: for primary growth inhibitory screen, cell viability, MCF-7: 2.5 µM, 72 h, mean±SD, untreated control about 100; for IC50: mean ± SD
Method: as §1, §2, §3

[5] = system: HeLa cells; assay: MTT cytotoxicity assay on HeLa cells; format: cell-based; conditions: for primary growth inhibitory screen, cell viability, HeLa: 2.5 µM, mean±SD, untreated control about 100; for IC50: mean ± SD
Method: as §1, §2, §3

[6] = Homo sapiens, MRC5, 72 h, compounds 1-7 µM, read-out: IC50 on MRC-5
[7] = Homo sapiens, PC-3, 72 h, compounds 1-7 µM, read-out: IC50 on PC-3
[8] = Homo sapiens, DU-145, 72 h, compounds 1-7 µM, read-out: IC50 on DU145
[9] = Homo sapiens, MCF7, 72 h, compounds 1-7 µM, read-out: IC50 on MCF-7
[10] = Homo sapiens, HeLa, 72 h, compounds 1-7 µM, read-out: IC50 on HeLa

Structure (SMILES) | primary growth inhibitory screen, cell viability, MRC-5 ([1]; 72 h) | primary growth inhibitory screen, cell viability, PC-3 [2] | primary growth inhibitory screen, cell viability, DU145 [3] | primary growth inhibitory screen, cell viability, MCF-7 [4] | primary growth inhibitory screen, cell viability, HeLa ([5]; 72 h) | melting point | IC50 [1, 6] | IC50 [2, 7] | IC50 [3, 8] | IC50 [4, 9] | IC50 [5, 10] | effect on non-cancerous fibroblasts ([1]; 72 h) | IC50 ([1]; cisplatin applied for 24 h, 20-330 µM, read-out: IC50 on MRC-5 (positive control)) | IC50 ([2]; cisplatin applied for 24 h, 20-330 µM, read-out: IC50 on PC-3 (positive control)) | IC50 ([3]; cisplatin applied for 24 h, 20-330 µM, read-out: IC50 on DU145 (positive control)) | IC50 ([4]; cisplatin applied for 24 h, 20-330 µM, read-out: IC50 on MCF-7 (positive control)) | IC50 ([5]; cisplatin applied for 24 h, 20-330 µM, read-out: IC50 on HeLa (positive control))
CC(=O)O[C@H]1CC[C@H]2[C@@H]3CCc4cc(O)c(C(C)=O)cc4[C@H]3CC[C@]12C [Compound 4, 2-Acetyl-estra-1,3,5(10)-triene-3,17β-diol-17-acetate] | ≥ 100±6.6 | 88.5±6.5 | 94.2±8.6 | 92.7±2.2 | 90.0±4.3 | 200 to 202 °C | – | – | – | – | – | – | – | – | – | – | –
CC(=O)c1cc2c(cc1O)CC[C@@H]1[C@@H]2CC[C@]2(C)[C@@H](O)CC[C@@H]12 [Compound 5, 2-Acetyl-estra-1,3,5(10)-triene-3,17β-diol] | ≥ 100±7 | 79.0±3.8 | 100.6±6.5 | 87.5 | 99.6±3.5 | 189 to 191 °C | – | – | – | – | – | – | – | – | – | – | –
CC(=O)O[C@H]1CC[C@H]2[C@@H]3CCc4cc(O)c(-c5nn(-c6ccccc6)cc5C=O)cc4[C@H]3CC[C@]12C [Compound 7a, 2-(4′-Formyl-1′-phenyl-1′H-pyrazol-3′-yl)-estra-1,3,5(10)-triene-3,17β-diol-17-acetate] | ≥ 100±5.7 | 87.8±7.1 | 108.7±9.1 | 98.6±5.2 | 102.7±2.7 | 230 to 232 °C | 5.9 ± 1 µM | 3.63 ± 1 µM | 6.93 ± 1 µM | 4.49 ± 1 µM | 4.18 ± 1 µM | – | – | – | – | – | –
CC(=O)O[C@H]1CC[C@H]2[C@@H]3CCc4cc(O)c(-c5nn(-c6ccc(C)cc6)cc5C=O)cc4[C@H]3CC[C@]12C [Compound 7b, 2-(4′-Formyl-1′-(4″-tolyl)-1′H-pyrazol-3′-yl)-estra-1,3,5(10)-triene-3,17β-diol-17-acetate] | 100.4±5.1 | 98.2±6.5 | 98.7±15.6 | ≥ 100±4.3 | 100.1±2.1 | 229 to 231 °C | – | – | – | – | – | – | – | – | – | – | –
CC(=O)O[C@H]1CC[C@H]2[C@@H]3CCc4cc(O)c(-c5nn(-c6ccc(Cl)cc6)cc5C=O)cc4[C@H]3CC[C@]12C [Compound 7c, 2-(1′-(4″-Chlorophenyl)-4′-formyl-1′H-pyrazol-3′-yl)-estra-1,3,5(10)-triene-3,17β-diol-17-acetate] | 78.9±4.3 | 36.0±4.5 | 70.4±3.6 | 57.4±10.6 | 94.1±1.9 | 268 to 270 °C | 4.76 ± 1.1 µM | 2.14 ± 1.1 µM | 3.37 ± 1 µM | 1.99 ± 1.1 µM | 5.32 ± 1.1 µM | no or very mild effect | – | – | – | – | –
C[C@]12CC[C@@H]3c4cc(-c5nn(-c6ccccc6)cc5C=O)c(O)cc4CC[C@H]3[C@@H]1CC[C@@H]2O [Compound 8a, 2-(4′-Formyl-1′-phenyl-1′H-pyrazol-3′-yl)-estra-1,3,5(10)-trien-3,17β-diol] | 99.9±3.3 | 54.9±3.0 | 108.8±4.1 | 100.9±4.8 | 100.4±1.6 | 172 to 174 °C | 5.12 ± 1 µM | 3.05 ± 1 µM | 6.46 ± 1 µM | 5.03 ± 1 µM | 4.09 ± 1 µM | no or very mild effect | – | – | – | – | –
Cc1ccc(-n2cc(C=O)c(-c3cc4c(cc3O)CC[C@@H]3[C@@H]4CC[C@]4(C)[C@@H](O)CC[C@@H]34)n2)cc1 [Compound 8b, 2-(4′-Formyl-1′-(4″-tolyl)-1′H-pyrazol-3′-yl)-estra-1,3,5(10)-trien-3,17β-diol] | ≥ 100±2.4 | 67.8±3.8 | ≥ 100±10.2 | ≥ 100±8.2 | 92.2±8.5 | > 190 °C (dec.) | – | – | – | – | – | – | – | – | – | – | –
C[C@]12CC[C@@H]3c4cc(-c5nn(-c6ccc(Cl)cc6)cc5C=O)c(O)cc4CC[C@H]3[C@@H]1CC[C@@H]2O [Compound 8c] | ≥ 100±3.3 | 94.8±4.0 | ≥ 100±5.0 | ≥ 100±5.3 | 83.1±6.2 | > 190 °C (dec.) | 5.53 ± 1 µM | 5.08 ± 1 µM | 4.82 ± 1 µM | 5.34 ± 1 µM | 3.39 ± 1 µM | – | – | – | – | – | –
CC(=O)O[C@H]1CC[C@H]2[C@@H]3CCc4cc5oc(=O)c6cn(-c7ccccc7)nc6c5cc4[C@H]3CC[C@]12C [Compound 9a] | ≥ 100±8.1 | 82.0±2.2 | ≥ 100±5.8 | ≥ 100±2.4 | 73.8±0.6 | 198 to 200 °C | 6.41 ± 1.1 µM | 4.22 ± 1 µM | 5.66 ± 1 µM | 4.94 ± 1 µM | 1.55 ± 1 µM | – | – | – | – | – | –
CC(=O)O[C@H]1CC[C@H]2[C@@H]3CCc4cc5oc(=O)c6cn(-c7ccc(C)cc7)nc6c5cc4[C@H]3CC[C@]12C [Compound 9b] | ≥ 100±4.2 | 86.2±2.4 | ≥ 100±4.5 | ≥ 100±0.8 | 68.0±0.4 | 264 to 266 °C | – | – | – | – | – | – | – | – | – | – | –
CC(=O)O[C@H]1CC[C@H]2[C@@H]3CCc4cc5oc(=O)c6cn(-c7ccc(Cl)cc7)nc6c5cc4[C@H]3CC[C@]12C [Compound 9c] | 89.5±8.7 | 94.1±4.2 | ≥ 100±0.9 | 91.1±3.1 | 75.7±1.7 | 283 to 285 °C | – | – | – | – | – | – | – | – | – | – | –
CC(=O)O[C@H]1CC[C@H]2[C@@H]3CCc4cc(O)c(-c5nn(-c6ccccc6)cc5CO)cc4[C@H]3CC[C@]12C [Compound 10a] | 93.6±1.7 | 63.6±17.8 | ≥ 100±15.8 | 73.5±7.2 | 83.2±2.0 | 257 to 259 °C | – | – | – | – | – | – | – | – | – | – | –
N.N.[Cl][Pt][Cl] [cisplatin, reference compound] | – | – | – | – | – | – | – | – | – | – | – | – | 34.3 ± 1.02 µM | > 330 µM | 116.1 ± 1.06 µM | > 330 µM | 297.1 ± 1.02 µM
